Data published in ChEMBL document CHEMBL1141205, “Design, synthesis, and evaluation of octahydropyranopyrrole-based inhibitors of mammalian ribonucleotide reductase” (Bioorg Med Chem Lett, 2005).
The source made the active and inactive calls. The rule behind the calls is not given here.

Key:
[1] = biological target: T1, Ribonucleoside-diphosphate reductase RR1 (Homo sapiens, UniProt P23921+P31350+Q7LG56); assay: (§1) Inhibition of mammalian ribonucleotide reductase (mRR); type: protein-complex assay
T1 sequence (P23921 whole entry): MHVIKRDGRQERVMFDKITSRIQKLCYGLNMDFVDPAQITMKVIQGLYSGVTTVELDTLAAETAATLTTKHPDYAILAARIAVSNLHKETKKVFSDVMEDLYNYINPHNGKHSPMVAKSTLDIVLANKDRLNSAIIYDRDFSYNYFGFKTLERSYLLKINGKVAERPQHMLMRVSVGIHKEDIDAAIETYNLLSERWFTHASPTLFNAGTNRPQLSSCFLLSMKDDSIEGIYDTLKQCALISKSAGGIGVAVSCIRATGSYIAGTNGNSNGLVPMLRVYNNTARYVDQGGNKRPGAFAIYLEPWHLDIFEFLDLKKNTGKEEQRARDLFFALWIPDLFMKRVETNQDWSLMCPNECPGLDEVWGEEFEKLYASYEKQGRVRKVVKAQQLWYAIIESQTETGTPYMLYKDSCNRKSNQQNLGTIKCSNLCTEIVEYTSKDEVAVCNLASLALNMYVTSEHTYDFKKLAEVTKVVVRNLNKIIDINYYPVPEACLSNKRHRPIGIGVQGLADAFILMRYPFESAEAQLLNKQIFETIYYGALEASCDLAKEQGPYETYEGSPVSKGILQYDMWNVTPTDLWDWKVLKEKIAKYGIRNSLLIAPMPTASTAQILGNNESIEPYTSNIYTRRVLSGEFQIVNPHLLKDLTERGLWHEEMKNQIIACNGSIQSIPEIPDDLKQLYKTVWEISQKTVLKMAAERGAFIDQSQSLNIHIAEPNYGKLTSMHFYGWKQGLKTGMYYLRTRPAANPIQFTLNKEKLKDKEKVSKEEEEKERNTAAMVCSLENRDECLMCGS
T1 sequence (Q7LG56 whole entry): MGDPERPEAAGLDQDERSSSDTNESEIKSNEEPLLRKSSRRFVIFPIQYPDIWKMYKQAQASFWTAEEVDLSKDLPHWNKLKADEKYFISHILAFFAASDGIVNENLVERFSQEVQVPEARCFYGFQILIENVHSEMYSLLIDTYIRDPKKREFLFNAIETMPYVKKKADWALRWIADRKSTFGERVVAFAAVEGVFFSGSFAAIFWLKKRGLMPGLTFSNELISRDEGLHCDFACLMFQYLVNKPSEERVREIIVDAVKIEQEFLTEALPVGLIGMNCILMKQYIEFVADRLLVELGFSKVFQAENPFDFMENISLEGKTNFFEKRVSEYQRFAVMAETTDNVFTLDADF
T1 sequence (P31350 whole entry): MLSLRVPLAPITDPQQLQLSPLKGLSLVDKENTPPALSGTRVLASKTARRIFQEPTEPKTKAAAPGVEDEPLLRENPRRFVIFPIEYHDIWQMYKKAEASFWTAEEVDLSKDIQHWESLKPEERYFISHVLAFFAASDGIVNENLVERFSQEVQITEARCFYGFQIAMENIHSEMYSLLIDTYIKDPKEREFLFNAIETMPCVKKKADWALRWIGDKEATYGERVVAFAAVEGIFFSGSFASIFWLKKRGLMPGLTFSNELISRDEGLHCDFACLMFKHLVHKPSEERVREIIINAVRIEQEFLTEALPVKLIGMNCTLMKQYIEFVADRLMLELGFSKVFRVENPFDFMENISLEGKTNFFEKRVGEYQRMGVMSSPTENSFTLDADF

[2] = biological target: Ribonucleoside-diphosphate reductase RR1 (Homo sapiens) (UniProt P23921+Q7LG56+P31350); assay: as §1; type: protein-complex assay

Row | IC50 [1] | Activity [2] | Structure (SMILES)
1 | 40 µM | – | CC(C)CO[C@@H]1C[C@@H]2[C@@H]([C@@H](COC(=O)CCC3c4ccccc4-c4ccccc43)O1)N(CC(=O)N[C@@H](CC(=O)O)C(=O)N[C@@H](Cc1ccccc1)C(=O)O)C[C@H]2O
2 | – | inactive | CC(C)CO[C@@H]1CC[C@H](N(C)CC(=O)N[C@@H](CC(=O)O)C(=O)N[C@@H](Cc2ccccc2)C(=O)O)[C@@H](COC(=O)CCc2ccccc2)O1
3 | – | inactive | CC(C)CO[C@@H]1C[C@@H]2[C@@H]([C@@H](COC(=O)COc3ccc4ccccc4c3)O1)N(CC(=O)N[C@@H](CC(=O)O)C(=O)N[C@@H](Cc1ccccc1)C(=O)O)C[C@H]2O
4 | – | inactive | CC(C)CO[C@@H]1CC[C@H](N(C)CC(=O)N[C@@H](CC(=O)O)C(=O)N[C@@H](Cc2ccccc2)C(=O)O)[C@@H](COC(=O)CCC2c3ccccc3-c3ccccc32)O1
5 | – | Active | CC(C)CO[C@@H]1C[C@@H]2[C@@H]([C@@H](COC(=O)CCc3ccccc3)O1)N(CC(=O)N[C@@H](CC(=O)O)C(=O)N[C@@H](Cc1ccccc1)C(=O)O)C[C@H]2O
